# Test results taken from BigSolDB 2.1.
# [1] = in cyclopentyl methyl ether, 322.85 K
smiles,measurement,setting,value
O=C(O)c1ccccc1O,solubility (mole fraction),"in 1,4-dioxane, 316.85 K",0.323
same,solubility (mole fraction),"in 1,4-dioxane, 321.55 K",0.337
same,solubility (mole fraction),"in 1,4-dioxane, 325.55 K",0.35
same,solubility (mole fraction),"in 1,4-dioxane, 330.85 K",0.365
same,solubility (mole fraction),"in cyclopentyl methyl ether, 316.75 K",0.252
same,solubility (mole fraction),[1],0.264
same,solubility (mole fraction),"in cyclopentyl methyl ether, 330.55 K",0.28
same,solubility (mole fraction),"in cyclopentyl methyl ether, 333.05 K",0.289
same,solubility (mole fraction),"in cyclopentyl methyl ether, 337.25 K",0.299
same,solubility (mole fraction),"in toluene, 305.65 K",0.007
same,solubility (mole fraction),"in toluene, 314.15 K",0.011
same,solubility (mole fraction),"in toluene, 323.45 K",0.017
same,solubility (mole fraction),"in toluene, 326.85 K",0.019
same,solubility (mole fraction),"in toluene, 329.05 K",0.021
same,solubility (mole fraction),"in toluene, 332.25 K",0.025
same,solubility (mole fraction),"in toluene, 333.35 K",0.027
CC(=O)Oc1ccccc1C(=O)O,solubility (mole fraction),"in 1,4-dioxane, 309.35 K",0.164
same,solubility (mole fraction),"in 1,4-dioxane, 312.05 K",0.171
same,solubility (mole fraction),"in 1,4-dioxane, 315.55 K",0.183
same,solubility (mole fraction),"in 1,4-dioxane, 317.65 K",0.191
same,solubility (mole fraction),"in 1,4-dioxane, 325.75 K",0.218
same,solubility (mole fraction),"in 1,4-dioxane, 330.05 K",0.236
same,solubility (mole fraction),"in 1,4-dioxane, 331.45 K",0.246
same,solubility (mole fraction),"in 1,4-dioxane, 332.55 K",0.258
same,solubility (mole fraction),"in cyclopentyl methyl ether, 313.05 K",0.055
same,solubility (mole fraction),"in cyclopentyl methyl ether, 314.25 K",0.057
same,solubility (mole fraction),"in cyclopentyl methyl ether, 316.35 K",0.059
same,solubility (mole fraction),"in cyclopentyl methyl ether, 319.05 K",0.064
same,solubility (mole fraction),"in cyclopentyl methyl ether, 320.55 K",0.068
same,solubility (mole fraction),[1],0.074
same,solubility (mole fraction),"in cyclopentyl methyl ether, 325.75 K",0.079
same,solubility (mole fraction),"in toluene, 321.25 K",0.008
same,solubility (mole fraction),"in toluene, 326.65 K",0.01
same,solubility (mole fraction),"in toluene, 327.15 K",0.011
same,solubility (mole fraction),"in toluene, 327.85 K",0.011
same,solubility (mole fraction),"in toluene, 330.15 K",0.014
NC(=O)c1ccncc1,solubility (mole fraction),"in 1,4-dioxane, 298.55 K",0.014
same,solubility (mole fraction),"in 1,4-dioxane, 301.45 K",0.015
same,solubility (mole fraction),"in 1,4-dioxane, 303.15 K",0.016
same,solubility (mole fraction),"in 1,4-dioxane, 305.05 K",0.017
same,solubility (mole fraction),"in 1,4-dioxane, 306.45 K",0.018
same,solubility (mole fraction),"in 1,4-dioxane, 308.25 K",0.019
same,solubility (mole fraction),"in 1,4-dioxane, 309.15 K",0.02
same,solubility (mole fraction),"in 1,4-dioxane, 309.35 K",0.02
same,solubility (mole fraction),"in 1,4-dioxane, 312.15 K",0.023
same,solubility (mole fraction),"in 1,4-dioxane, 314.05 K",0.024
same,solubility (mole fraction),"in 1,4-dioxane, 315.35 K",0.026
same,solubility (mole fraction),"in 1,4-dioxane, 319.45 K",0.028
same,solubility (mole fraction),"in 1,4-dioxane, 325.55 K",0.036
NC(=O)N1c2ccccc2C=Cc2ccccc21,solubility (mole fraction),"in 1,4-dioxane, 310.35 K",0.022
same,solubility (mole fraction),"in 1,4-dioxane, 319.95 K",0.032
same,solubility (mole fraction),"in 1,4-dioxane, 323.55 K",0.036
same,solubility (mole fraction),"in 1,4-dioxane, 327.95 K",0.043
same,solubility (mole fraction),"in 1,4-dioxane, 329.75 K",0.047
same,solubility (mole fraction),"in 1,4-dioxane, 332.45 K",0.052
same,solubility (mole fraction),"in 1,4-dioxane, 332.95 K",0.054
same,solubility (mole fraction),"in cyclopentyl methyl ether, 308.15 K",0.002
same,solubility (mole fraction),"in cyclopentyl methyl ether, 315.15 K",0.002
same,solubility (mole fraction),"in cyclopentyl methyl ether, 323.75 K",0.003
same,solubility (mole fraction),"in cyclopentyl methyl ether, 331.45 K",0.004
same,solubility (mole fraction),"in cyclopentyl methyl ether, 332.45 K",0.004
same,solubility (mole fraction),"in toluene, 301.85 K",0.001
same,solubility (mole fraction),"in toluene, 313.95 K",0.002
same,solubility (mole fraction),"in toluene, 319.65 K",0.003
same,solubility (mole fraction),"in toluene, 325.35 K",0.004
same,solubility (mole fraction),"in toluene, 328.55 K",0.004
same,solubility (mole fraction),"in toluene, 332.15 K",0.005
same,solubility (mole fraction),"in toluene, 335.35 K",0.006
Nc1ccc(C(=O)O)cc1,solubility (mole fraction),"in 1,4-dioxane, 298.25 K",0.068
same,solubility (mole fraction),"in 1,4-dioxane, 301.25 K",0.073
same,solubility (mole fraction),"in 1,4-dioxane, 304.65 K",0.08
same,solubility (mole fraction),"in 1,4-dioxane, 311.55 K",0.094
same,solubility (mole fraction),"in 1,4-dioxane, 317.75 K",0.108
same,solubility (mole fraction),"in 1,4-dioxane, 320.65 K",0.116
same,solubility (mole fraction),"in 1,4-dioxane, 324.85 K",0.127
same,solubility (mole fraction),"in 1,4-dioxane, 326.35 K",0.131
O=C(O)c1cccc(O)c1,solubility (mole fraction),"in 1,4-dioxane, 305.35 K",0.188
same,solubility (mole fraction),"in 1,4-dioxane, 308.85 K",0.194
same,solubility (mole fraction),"in 1,4-dioxane, 310.85 K",0.197
same,solubility (mole fraction),"in 1,4-dioxane, 312.95 K",0.204
same,solubility (mole fraction),"in 1,4-dioxane, 313.05 K",0.203
same,solubility (mole fraction),"in 1,4-dioxane, 316.75 K",0.211
same,solubility (mole fraction),"in 1,4-dioxane, 318.75 K",0.214
same,solubility (mole fraction),"in 1,4-dioxane, 321.45 K",0.219
same,solubility (mole fraction),"in 1,4-dioxane, 325.35 K",0.227
NC(=O)c1cccnc1,solubility (mole fraction),"in 1,4-dioxane, 307.25 K",0.025
same,solubility (mole fraction),"in 1,4-dioxane, 309.95 K",0.027
same,solubility (mole fraction),"in 1,4-dioxane, 311.55 K",0.029
same,solubility (mole fraction),"in 1,4-dioxane, 313.35 K",0.031
same,solubility (mole fraction),"in 1,4-dioxane, 315.45 K",0.033
CC(=O)Nc1ccc(O)cc1,solubility (mole fraction),"in 1,4-dioxane, 334.55 K",0.037
same,solubility (mole fraction),"in 1,4-dioxane, 335.35 K",0.039
same,solubility (mole fraction),"in 1,4-dioxane, 336.65 K",0.042
same,solubility (mole fraction),"in 1,4-dioxane, 336.95 K",0.042
same,solubility (mole fraction),"in 1,4-dioxane, 337.25 K",0.043
same,solubility (mole fraction),"in 1,4-dioxane, 337.85 K",0.045
Nc1ccccc1C(=O)O,solubility (mole fraction),"in 1,4-dioxane, 295.65 K",0.251
same,solubility (mole fraction),"in 1,4-dioxane, 304.55 K",0.275
same,solubility (mole fraction),"in 1,4-dioxane, 308.35 K",0.287
same,solubility (mole fraction),"in 1,4-dioxane, 320.85 K",0.334
same,solubility (mole fraction),"in 1,4-dioxane, 324.85 K",0.338
same,solubility (mole fraction),"in cyclopentyl methyl ether, 297.85 K",0.137
same,solubility (mole fraction),"in cyclopentyl methyl ether, 308.45 K",0.155
same,solubility (mole fraction),"in cyclopentyl methyl ether, 315.55 K",0.171
same,solubility (mole fraction),"in cyclopentyl methyl ether, 325.25 K",0.194
same,solubility (mole fraction),"in cyclopentyl methyl ether, 334.25 K",0.223
same,solubility (mole fraction),"in toluene, 295.55 K",0.007
same,solubility (mole fraction),"in toluene, 306.95 K",0.012
same,solubility (mole fraction),"in toluene, 308.85 K",0.013
same,solubility (mole fraction),"in toluene, 312.65 K",0.015
same,solubility (mole fraction),"in toluene, 316.75 K",0.018
same,solubility (mole fraction),"in toluene, 322.25 K",0.024
same,solubility (mole fraction),"in toluene, 325.95 K",0.026
same,solubility (mole fraction),"in toluene, 326.05 K",0.026
c1ccc2nc3ccccc3nc2c1,solubility (mole fraction),"in 1,4-dioxane, 302.55 K",0.031
same,solubility (mole fraction),"in 1,4-dioxane, 305.55 K",0.033
same,solubility (mole fraction),"in 1,4-dioxane, 306.05 K",0.034
same,solubility (mole fraction),"in 1,4-dioxane, 308.85 K",0.038
same,solubility (mole fraction),"in 1,4-dioxane, 312.45 K",0.04
same,solubility (mole fraction),"in 1,4-dioxane, 313.55 K",0.043
same,solubility (mole fraction),"in 1,4-dioxane, 318.75 K",0.049
same,solubility (mole fraction),"in cyclopentyl methyl ether, 301.15 K",0.022
same,solubility (mole fraction),"in cyclopentyl methyl ether, 305.75 K",0.026
same,solubility (mole fraction),"in cyclopentyl methyl ether, 310.05 K",0.029
same,solubility (mole fraction),"in cyclopentyl methyl ether, 314.05 K",0.033
same,solubility (mole fraction),"in cyclopentyl methyl ether, 318.25 K",0.039
same,solubility (mole fraction),"in cyclopentyl methyl ether, 326.85 K",0.047
same,solubility (mole fraction),"in toluene, 282.95 K",0.015
same,solubility (mole fraction),"in toluene, 289.85 K",0.02
same,solubility (mole fraction),"in toluene, 294.25 K",0.022
same,solubility (mole fraction),"in toluene, 297.95 K",0.025
same,solubility (mole fraction),"in toluene, 301.35 K",0.027
same,solubility (mole fraction),"in toluene, 312.55 K",0.039
same,solubility (mole fraction),"in toluene, 318.25 K",0.046
same,solubility (mole fraction),"in toluene, 322.35 K",0.053
same,solubility (mole fraction),"in toluene, 328.75 K",0.062
O=C(Oc1ccccc1C(=O)O)c1ccccc1O,solubility (mole fraction),"in 1,4-dioxane, 324.45 K",0.263
same,solubility (mole fraction),"in 1,4-dioxane, 326.55 K",0.268
same,solubility (mole fraction),"in 1,4-dioxane, 330.35 K",0.278
same,solubility (mole fraction),"in 1,4-dioxane, 332.55 K",0.284
same,solubility (mole fraction),"in 1,4-dioxane, 334.95 K",0.291
same,solubility (mole fraction),"in 1,4-dioxane, 337.35 K",0.298
same,solubility (mole fraction),"in cyclopentyl methyl ether, 319.75 K",0.148
same,solubility (mole fraction),"in cyclopentyl methyl ether, 323.25 K",0.156
same,solubility (mole fraction),"in cyclopentyl methyl ether, 323.95 K",0.158
same,solubility (mole fraction),"in cyclopentyl methyl ether, 325.65 K",0.16
same,solubility (mole fraction),"in cyclopentyl methyl ether, 327.75 K",0.166
same,solubility (mole fraction),"in cyclopentyl methyl ether, 329.95 K",0.17
same,solubility (mole fraction),"in cyclopentyl methyl ether, 333.95 K",0.176
same,solubility (mole fraction),"in toluene, 327.75 K",0.016
same,solubility (mole fraction),"in toluene, 329.25 K",0.017
same,solubility (mole fraction),"in toluene, 333.45 K",0.019
same,solubility (mole fraction),"in toluene, 335.25 K",0.021
same,solubility (mole fraction),"in toluene, 335.95 K",0.022
O=C(O)c1ccc([N+](=O)[O-])cc1,solubility (mole fraction),"in 1,4-dioxane, 296.95 K",0.036
same,solubility (mole fraction),"in 1,4-dioxane, 303.25 K",0.048
same,solubility (mole fraction),"in 1,4-dioxane, 306.25 K",0.053
same,solubility (mole fraction),"in 1,4-dioxane, 310.85 K",0.062
same,solubility (mole fraction),"in 1,4-dioxane, 314.65 K",0.07
same,solubility (mole fraction),"in 1,4-dioxane, 319.35 K",0.08
O=C(O)c1ccc(O)cc1,solubility (mole fraction),"in 1,4-dioxane, 299.65 K",0.08
same,solubility (mole fraction),"in 1,4-dioxane, 304.15 K",0.088
same,solubility (mole fraction),"in 1,4-dioxane, 311.15 K",0.102
same,solubility (mole fraction),"in 1,4-dioxane, 315.75 K",0.111
same,solubility (mole fraction),"in 1,4-dioxane, 319.95 K",0.119
same,solubility (mole fraction),"in 1,4-dioxane, 324.55 K",0.131
